Measurements as given in the NIST ThermoML archive (doi:10.1016/j.tca.2019.02.007).
± gives the expanded uncertainty stated by the source.

Columns and labels:
[1] = for Normal melting temperature: DTA
[2] = Molar enthalpy of transition or fusion; details: DSC

Row | SMILES | Normal melting temperature ([1]; Crystal) [°C] | Molar enthalpy of transition or fusion ([2]; Crystal) [kcal/mol] | Normal melting temperature ([1]; Crystal 1) [°C] | Triple point temperature ([1]; Crystal 2, DSC) [K] | Molar enthalpy of transition or fusion ([2]; Crystal 1) [kcal/mol] | Molar enthalpy of transition or fusion ([2]; Crystal 2) [kcal/mol]
1 | CC(=O)Oc1ccccc1C(=O)O [2-acetoxybenzoic acid] | 139.2 ± 1.5 | 8.08 ± 0.574 | – | – | – | –
2 | O=C(O)c1ccccc1 [benzoic acid] | 122.5 ± 0.5 | 4.33 ± 0.131 | – | – | – | –
3 | Cn1c(=O)c2c(ncn2C)n(C)c1=O [caffeine] | – | – | 235.2 ± 1.3 | 420.3 ± 1.1 | 5 ± 0.526 | 0.954 ± 0.0741
